From paper PMC8804135 (Neurotherapeutics, 2021)
Numbered stars: 1 amine (or outer) side, 2 acyl side, 3 side chain; on linkers, the order of the positions; unused ones are H or OH. Bridge positions count the residues as written; N and C are the ends. Square brackets hold non-standard residues; d marks the D form. Peptide text beside a SMILES is read from it. dAbu(3S-yl) = C[C@@H]([C@@H](N[*:1])C(=O)[*:2])[*:3]; pGlu = O=C1CC[C@@H](C(=O)O)N1

Experiments:
[1] = tested on: non-fasted male Wistar rats; experiment: Food intake and body weight after intranasal application of peptides; type: in vivo, rat
Method: For intranasal delivery, 1 mg of M89b was first dissolved in 566 µl 2,2,2-trifluorethanol, 566 µl 10% (2-hydroxypropyl)-ß-cyclodextrin (HBC), and 1 µl acetic acid and incubated at 60 °C for 20 min. Another 566 µl of 10% HBC were added. The peptide was then dried in a speed-vac, and the dried pellet was dissolved in 1132 µl water by vortexing and incubation at 60 °C. M871 and GALP were purchased from GL Biochem. M871 was dissolved in saline containing 10% HBC. GALP was dissolved in saline containing 5% α-cyclodextrin.
In vivo experiments involving intranasal treatment of rats and measurement of feeding behavior were performed at the Institute for Translational Medicine, University of Pécs, Pécs, Hungary. Experiments were approved by the National Ethical Council for Animal Research (permit number, BA 02/2000–11/2018). They were also in accord with the directives of the European Communities Council on the protection of animals used for scientific purposes (86/609/EEC, Directive 2010/63/EU of the European Parliament and of the Council).
Spontaneous food intake was measured in non-fasted male Wistar rats (3 months old) for 24 h following intranasal application of peptide solutions by an automated FeedScale System (Columbus, OH). Each group of animals (6–9 rats/group) was habituated to the individual chambers of the FeedScale System until daily food intake and changes in the body weight of the animals had normalized. This habituation, which lasted for a minimum of 2 weeks, allowed adaptation to the environment, to the powdered chow and to the feeder. This powdered form of chow prevented food hoarding. A special digital scale under the cages provided precise automated measurement and continuous recording of the amount of consumed food. During the measurement of the cumulative 24 h food intake, data were collected every 30 min.
Intranasal applications were performed at 06:00 PM at the onset of the active nighttime period of rats. First, the body weight of animals was recorded, and then they were intraperitoneally anesthetized with ketamine (52 mg/kg) and xylazine (9 mg/kg). For the intranasal application of peptides, rats were placed on their backs, and 25–30 µl of peptide solution was injected gently per nostril (total volume of 50–60 μl per rat depending on the administered peptides) using a 10-μl pipette. The following solutions were applied: M89b (25 nmol in 60 µl saline containing 10% HBC); GALP (17.5 nmol in 50 µl saline containing 5% α-cyclodextrin); M871 (219 nmol in 60 µl 10% HBC); and M89b + M871 (25 nmol M89b + 219 nmol M871 in 60 µl 10% HBC). […] At 24 h post-treatment, the body weight of the animals was measured.
Statistical analysis was performed with SPSS 11.0. […] Body weight data were analyzed by applying a one-way ANOVA with Tukey’s post hoc test. […]

GAL1R [2] = biological target: T1, GAL1R (Homo sapiens, UniProt P47211); experiment: PathHunter eXpress β-arrestin recruitment assay, GAL1R; type: cell-based; design: expressed in transfected cells; conditions: Table 3; CHO-K1 cells co-expressing GAL1R and β-arrestin 2; 10 µM to 5 nM; (average) ratio, (n) in cell = number of assays; NA = ratio above 1000
T1 sequence (P47211 1-349): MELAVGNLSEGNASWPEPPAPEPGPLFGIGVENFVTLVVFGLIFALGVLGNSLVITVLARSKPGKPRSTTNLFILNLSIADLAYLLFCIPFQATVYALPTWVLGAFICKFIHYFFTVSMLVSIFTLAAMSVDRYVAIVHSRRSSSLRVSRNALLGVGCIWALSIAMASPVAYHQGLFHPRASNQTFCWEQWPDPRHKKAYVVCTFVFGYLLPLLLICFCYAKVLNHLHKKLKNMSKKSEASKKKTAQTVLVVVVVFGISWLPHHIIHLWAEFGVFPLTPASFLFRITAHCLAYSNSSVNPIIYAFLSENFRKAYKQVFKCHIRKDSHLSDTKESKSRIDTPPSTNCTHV

GAL1R [3] = biological target: T1, GAL1R; experiment: cAMP Hunter eXpress GAL1R CHO-K1 GPCR assay (inhibition of forskolin-induced cAMP); type: cell-based; design: expressed in transfected cells; conditions: Table 3; CHO-K1 cells expressing GAL1R; 20 µM forskolin; 10 µM to 5 nM; (average) ratio, (n) in cell = number of assays; NA = ratio above 1000

**Q.** Which results are given for `CC(C)C[C@H](NC(=O)[C@H](CC(C)C)NC(=O)[C@H](Cc1ccc(O)cc1)NC(=O)CNC(=O)[C@H](C)NC(=O)[C@H](C)NC(=O)[C@H](CC(N)=O)NC(=O)[C@H](CC(C)C)NC(=O)[C@H](CC(N)=O)NC(=O)[C@H](Cc1c[nH]c2ccccc12)NC(=O)[C@@H]1CCC(=O)N1)C(=O)N[C@@H](C)C(=O)N[C@H]1C(=O)N[C@@H](Cc2c[nH]cn2)C(=O)N[C@@H](C)C(=O)N[C@H](C(=O)NCC(=O)O)CS[C@H]1C` [Variant M89b, G1pE-T3N-S6A-G12A-methyllanthionine[13–16]-galanin-(1–17)] ([pGlu]WNLNAAGYLLA[dAbu(3S-yl)]HACG-OH; thioether 13-16; C-terminus assumed)?
**A.** Loss of initial body weight at 24 h post-treatment ([1]; intranasal 25 nmol in 10% HBC, p = 0.009 vs. vehicle): 2.6%; Reduction of 24 h food intake compared to vehicle ([1]; intranasal 25 nmol in 60 µl saline with 10% HBC, p = 0.006 vs vehicle): 23%; EC50 ratios to Gal-(1-15), GAL1R ß-Arrestin (GAL1R [2]): NA (3) (NA is not active; ratios above 1000 were considered to be not active); EC50 ratios to Gal-(1-15), GAL1R cAMP (GAL1R [3]): NA (3) (NA is not active; ratios above 1000 were considered to be not active)
